Measured values taken from patent US9796711B2, “Substituted pyrazolo[3,4-b]pyridin-6-carboxylic acids and method of use” (AbbVie S.àr.l., priority 2015, dated 2017).

Columns and labels:
ΔF508-CFTR [1] = biological target: T1, ΔF508-CFTR (Homo sapiens, UniProt P13569, DEL508-508); experiment: CFTR cell surface levels using HRP-tagged ΔF508-CFTR expressing CFBE cells, intrinsic corrector capacity; format: cell-based; settings: HRP-tagged ΔF508-CFTR CFBE41o- cells, compounds alone (intrinsic corrector capacity), 20 hours at 33° C.; for % Activation: positive control 3 μM corrector; for EC50: read-out: EC50
T1 construct: host or cells: CFBE41o-, doxycycline-inducible
Summary of the method: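 Here the cells express ΔF508-CFTR with horseradish peroxidase inserted in extracellular loop 4, so only rescued channel at the surface gives luminescent signal. Compounds act on their own, 20 h at the reduced temperature of 33 °C; values are percent activity relative to DMSO and a 3 μM corrector.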

ΔF508-CFTR [2] = biological target: T1, ΔF508-CFTR; experiment: CFTR cell surface levels using HRP-tagged ΔF508-CFTR expressing CFBE cells, in the presence of a co-corrector; format: cell-based; settings: HRP-tagged ΔF508-CFTR expressing CFBE cells, in the presence of 3 μM co-corrector; for EC50: read-out: EC50
Summary of the method: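 Cells were seeded with 0.5 μg/mL doxycycline and held 68 h at 37 °C. Test compounds plus 3 μM co-corrector (final 0.1% DMSO) were then added for 20 h at 33 °C. Washed cells received HRP substrate, and luminescence was normalized between DMSO and 3 μM co-corrector controls.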

T1 sequence (P13569 with tags, fused parts or gaps DEL508-508): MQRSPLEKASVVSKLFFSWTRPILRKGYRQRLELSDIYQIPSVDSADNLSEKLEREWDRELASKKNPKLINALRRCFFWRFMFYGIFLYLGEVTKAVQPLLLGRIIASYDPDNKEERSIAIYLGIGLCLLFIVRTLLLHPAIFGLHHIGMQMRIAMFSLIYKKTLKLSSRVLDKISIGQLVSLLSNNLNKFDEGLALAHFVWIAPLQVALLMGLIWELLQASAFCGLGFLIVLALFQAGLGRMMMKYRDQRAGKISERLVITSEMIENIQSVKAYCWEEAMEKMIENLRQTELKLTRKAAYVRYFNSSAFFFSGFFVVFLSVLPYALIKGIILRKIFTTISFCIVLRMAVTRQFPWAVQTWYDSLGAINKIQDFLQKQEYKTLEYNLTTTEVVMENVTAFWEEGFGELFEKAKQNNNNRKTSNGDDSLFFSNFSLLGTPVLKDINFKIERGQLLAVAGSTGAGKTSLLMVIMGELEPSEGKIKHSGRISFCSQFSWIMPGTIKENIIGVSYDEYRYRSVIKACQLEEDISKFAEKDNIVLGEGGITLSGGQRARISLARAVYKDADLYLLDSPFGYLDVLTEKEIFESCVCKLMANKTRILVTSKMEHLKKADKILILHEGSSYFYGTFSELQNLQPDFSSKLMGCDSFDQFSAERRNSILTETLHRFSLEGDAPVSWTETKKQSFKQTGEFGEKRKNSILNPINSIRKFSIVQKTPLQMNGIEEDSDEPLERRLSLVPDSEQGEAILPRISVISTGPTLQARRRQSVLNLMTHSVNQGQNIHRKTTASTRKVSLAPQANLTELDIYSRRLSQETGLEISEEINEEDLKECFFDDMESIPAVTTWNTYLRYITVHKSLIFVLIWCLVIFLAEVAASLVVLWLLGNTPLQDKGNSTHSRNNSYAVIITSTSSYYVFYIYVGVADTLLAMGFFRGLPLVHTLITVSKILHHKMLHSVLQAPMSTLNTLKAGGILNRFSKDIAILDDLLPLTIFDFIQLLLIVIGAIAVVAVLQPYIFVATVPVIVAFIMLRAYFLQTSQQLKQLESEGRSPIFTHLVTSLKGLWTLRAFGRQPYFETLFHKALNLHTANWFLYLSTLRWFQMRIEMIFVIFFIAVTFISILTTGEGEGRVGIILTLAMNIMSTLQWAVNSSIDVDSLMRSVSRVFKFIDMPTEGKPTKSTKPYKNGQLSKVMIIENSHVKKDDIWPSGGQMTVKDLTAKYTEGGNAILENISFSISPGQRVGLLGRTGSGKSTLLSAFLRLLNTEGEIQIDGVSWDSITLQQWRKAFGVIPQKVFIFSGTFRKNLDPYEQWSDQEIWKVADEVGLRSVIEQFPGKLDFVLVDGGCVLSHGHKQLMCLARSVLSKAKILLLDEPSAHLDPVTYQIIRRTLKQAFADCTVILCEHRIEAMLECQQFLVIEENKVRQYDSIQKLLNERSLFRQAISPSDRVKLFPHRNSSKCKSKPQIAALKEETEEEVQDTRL

Row | Compound | % Activation (ΔF508-CFTR [1]) | EC50 (ΔF508-CFTR [1]) | % Activation (ΔF508-CFTR [2]) | EC50 (ΔF508-CFTR [2])
1 | CC(C)c1nn(C2CCN(CC#N)C2)c2nc(C(=O)O)cc(-c3ccc(N4CCOCC4)cc3)c12 (centres unmarked) [compound 141, 1-[1-(cyanomethyl)pyrrolidin-3-yl]-4-[4-(morpholin-4-yl)phenyl]-3-(propan-2-yl)-1H-pyrazolo[3,4-b]pyridine-6-carboxylic acid] | 5.399% | > 10 µM | 121.5% | > 10 µM
2 | COC(=O)N1CCC(n2nc(C(C)C)c3c(-c4ccc(N5CCOCC5)cc4)cc(C(=O)O)nc32)C1 (centres unmarked) [compound 142, 1-[1-(methoxycarbonyl)pyrrolidin-3-yl]-4-[4-(morpholin-4-yl)phenyl]-3-(propan-2-yl)-1H-pyrazolo[3,4-b]pyridine-6-carboxylic acid] | 17.605% | > 10 µM | 135.2% | 5.55 µM
3 | COC1CCN(c2cc(C(=O)O)nc3c2c(C)nn3-c2ccccc2)CC1 [compound 143, 4-(4-methoxypiperidin-1-yl)-3-methyl-1-phenyl-1H-pyrazolo[3,4-b]pyridine-6-carboxylic acid] | 109.45% | 2.29 µM | 246.8% | 2.42 µM
4 | Cc1nn(-c2ccccc2)c2nc(C(=O)O)cc(-c3ccc(NC4CCOCC4)cc3)c12 [compound 145, 3-methyl-4-{4-[(oxan-4-yl)amino]phenyl}-1-phenyl-1H-pyrazolo[3,4-b]pyridine-6-carboxylic acid] | 190.2% | 1.43 µM | 368.6% | 0.85 µM
5 | Cc1nn(-c2ccccc2)c2nc(C(=O)O)cc(N3CCN(S(C)(=O)=O)CC3)c12 [compound 146, 4-[4-(methanesulfonyl)piperazin-1-yl]-3-methyl-1-phenyl-1H-pyrazolo[3,4-b]pyridine-6-carboxylic acid] | 8.92% | > 10 µM | 134.9% | > 10 µM
6 | CN(C)c1ncc(-c2cc(C(=O)O)nc3c2c(C(C)(C)C)nn3C2CCCCC2)cn1 [compound 147, 3-tert-butyl-1-cyclohexyl-4-[2-(dimethylamino)pyrimidin-5-yl]-1H-pyrazolo[3,4-b]pyridine-6-carboxylic acid] | 114.65% | 1.05 µM | 318.9% | 0.831 µM
7 | N#CCN1CC(c2nn(-c3ccccc3)c3nc(C(=O)O)cc(-c4ccc(N5CCOCC5)cc4)c23)C1 [compound 148, 3-[1-(cyanomethyl)azetidin-3-yl]-4-[4-(morpholin-4-yl)phenyl]-1-phenyl-1H-pyrazolo[3,4-b]pyridine-6-carboxylic acid] | 79.64% | 3.34 µM | 238.75% | 3.34 µM
8 | CC(C)(C)c1nn(C2CCCCC2)c2nc(C(=O)O)cc(-c3cnc(N4CCOCC4)nc3)c12 [compound 149, 3-tert-butyl-1-cyclohexyl-4-[2-(morpholin-4-yl)pyrimidin-5-yl]-1H-pyrazolo[3,4-b]pyridine-6-carboxylic acid] | 112.95% | 0.653 µM | 296% | 0.449 µM
9 | Cc1nn(-c2ccccc2)c2nc(C(=O)O)cc(N3CCCCC3=O)c12 [compound 150, 3-methyl-4-(2-oxopiperidin-1-yl)-1-phenyl-1H-pyrazolo[3,4-b]pyridine-6-carboxylic acid] | 6.341% | > 10 µM | 115.3% | > 10 µM
10 | Cc1nn(-c2ccccc2)c2nc(C(=O)O)cc(OCC3CCCCC3)c12 [compound 152, 4-(cyclohexylmethoxy)-3-methyl-1-phenyl-1H-pyrazolo[3,4-b]pyridine-6-carboxylic acid] | 75.36% | 2.63 µM | 253.1% | 2.09 µM
11 | Cc1nn(-c2ccccc2)c2nc(C(=O)O)cc(-c3ccc(N4CCC(O)C4)cc3)c12 (centres unmarked) [compound 153, 4-[4-(3-hydroxypyrrolidin-1-yl)phenyl]-3-methyl-1-phenyl-1H-pyrazolo[3,4-b]pyridine-6-carboxylic acid] | 198.45% | 1.53 µM | 386.85% | 1.2 µM
12 | Cc1nn(-c2ccccc2)c2nc(C(=O)O)cc(-c3ccc(N4CCC5(CC4)COC5)cc3)c12 [compound 154, 3-methyl-4-[4-(2-oxa-7-azaspiro[3.5]nonan-7-yl)phenyl]-1-phenyl-1H-pyrazolo[3,4-b]pyridine-6-carboxylic acid] | 153.9% | 0.918 µM | 353.7% | 0.748 µM
13 | Cc1nn(-c2ccccc2)c2nc(C(=O)O)cc(-c3ccc(N4CC[C@H](C#N)C4)cc3)c12 [compound 155, 4-{4-[(3S)-3-cyanopyrrolidin-1-yl]phenyl}-3-methyl-1-phenyl-1H-pyrazolo[3,4-b]pyridine-6-carboxylic acid] | 203.65% | 1.35 µM | 399.6% | 0.909 µM
14 | CC(=O)NC1CCN(c2ccc(-c3cc(C(=O)O)nc4c3c(C)nn4-c3ccccc3)cc2)C1 (centres unmarked) [compound 156, 4-[4-(3-acetamidopyrrolidin-1-yl)phenyl]-3-methyl-1-phenyl-1H-pyrazolo[3,4-b]pyridine-6-carboxylic acid] | 175.5% | 3.34 µM | 411.55% | 3.16 µM
15 | CC(C)c1nn(-c2cccc(N3CCCC3)c2)c2nc(C(=O)O)cc(-c3ccc(N4CCOCC4)cc3)c12 [compound 157, 4-[4-(morpholin-4-yl)phenyl]-3-(propan-2-yl)-1-[3-(pyrrolidin-1-yl)phenyl]-1H-pyrazolo[3,4-b]pyridine-6-carboxylic acid] | 388.2% | 0.459 µM | 621% | 0.485 µM
16 | Cc1nn(-c2ccccc2)c2nc(C(=O)O)cc(C(=O)N3CCCCC3)c12 [compound 158, 3-methyl-1-phenyl-4-(piperidine-1-carbonyl)-1H-pyrazolo[3,4-b]pyridine-6-carboxylic acid] | 1.521% | > 10 µM | 112.2% | > 10 µM
17 | CC(C)c1nn(C2CCC(F)(F)CC2)c2nc(C(=O)O)cc(-c3ccc(N4CCOCC4)cc3)c12 [compound 159, 1-(4,4-difluorocyclohexyl)-4-[4-(morpholin-4-yl)phenyl]-3-(propan-2-yl)-1H-pyrazolo[3,4-b]pyridine-6-carboxylic acid] | 150.16% | 0.737 µM | 415.33% | 0.755 µM
18 | CC(C)c1nn(-c2cccc(N3CC(C)(C)C3)c2)c2nc(C(=O)O)cc(-c3ccc(N4CCOCC4)cc3)c12 [compound 160, 1-[3-(3,3-dimethylazetidin-1-yl)phenyl]-4-[4-(morpholin-4-yl)phenyl]-3-(propan-2-yl)-1H-pyrazolo[3,4-b]pyridine-6-carboxylic acid] | 318.83% | 0.447 µM | 544.87% | 0.329 µM
19 | CC(C)c1nn(C2CCCN(CC(F)(F)F)C2)c2nc(C(=O)O)cc(-c3ccc(N4CCOCC4)cc3)c12 (centres unmarked) [compound 161, 4-[4-(morpholin-4-yl)phenyl]-3-(propan-2-yl)-1-[1-(2,2,2-trifluoroethyl)piperidin-3-yl]-1H-pyrazolo[3,4-b]pyridine-6-carboxylic acid] | 111.83% | 0.921 µM | 333.87% | 0.795 µM
20 | Cc1cccc(-n2nc(C(C)C)c3c(N4CCCCC4)cc(C(=O)O)nc32)c1 [compound 162, 1-(3-methylphenyl)-4-(piperidin-1-yl)-3-(propan-2-yl)-1H-pyrazolo[3,4-b]pyridine-6-carboxylic acid] | 147.97% | 0.992 µM | 399.73% | 0.808 µM
21 | CC(C)c1nn([C@@H]2CCC[C@@H](OCc3ccccc3)C2)c2nc(C(=O)O)cc(-c3ccc(N4CCOCC4)cc3)c12 [compound 163, 1-[(1R,3R)-3-(benzyloxy)cyclohexyl]-4-[4-(morpholin-4-yl)phenyl]-3-(propan-2-yl)-1H-pyrazolo[3,4-b]pyridine-6-carboxylic acid] | 232.43% | 0.525 µM | 554.5% | 0.423 µM
22 | COC1CN(c2cccc(-n3nc(C(C)C)c4c(-c5ccc(N6CCOCC6)cc5)cc(C(=O)O)nc43)c2)C1 [compound 164, 1-[3-(3-methoxyazetidin-1-yl)phenyl]-4-[4-(morpholin-4-yl)phenyl]-3-(propan-2-yl)-1H-pyrazolo[3,4-b]pyridine-6-carboxylic acid] | 359.9% | 0.675 µM | 608.5% | 0.375 µM
23 | CC(C)c1nn(-c2cccc(N3CCC(F)C3)c2)c2nc(C(=O)O)cc(-c3ccc(N4CCOCC4)cc3)c12 (centres unmarked) [compound 165, 1-[3-(3-fluoropyrrolidin-1-yl)phenyl]-4-[4-(morpholin-4-yl)phenyl]-3-(propan-2-yl)-1H-pyrazolo[3,4-b]pyridine-6-carboxylic acid] | 350.4% | 0.794 µM | 533.35% | 0.515 µM
